Experiments:
AZD0156 = compound: CN(C)CCCOc1ccc(-c2ccc3ncc4c(c3c2)n(C2CCOCC2)c(=O)n4C)cn1 [AZD0156]; details: max 3 µM
How it was run: (§1)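 After 24 hours at 37°C and 5% CO2 in 1536-well plates holding 7.5 μl of DMEM/F12 or RPMI with 10% FBS, cancer cell lines were dosed for 72 hours, with final DMSO typically 0.2%. Viability came from CellTiter-Glo 2.0 luminescence, scaled between the means of blank wells and DMSO wells. A non-linear mixed effects model fitted a two-parameter logistic curve to each dose response to give the single-agent IC50.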

AZD1390 = compound: CC(C)n1c(=O)n(C)c2cnc3cc(F)c(-c4ccc(OCCCN5CCCCC5)nc4)cc3c21 [AZD1390]; details: max 0.3 µM
How it was run: as §1

AZD5153 = compound: COc1nnc2ccc(N3CCC(c4ccc(OCCN5CCN(C)C(=O)[C@H]5C)cc4)CC3)nn12 [AZD5153]; details: max 1 µM
How it was run: as §1

AZD8186 = compound: C[C@@H](Nc1cc(F)cc(F)c1)c1cc(C(=O)N(C)C)cc2c(=O)cc(N3CCOCC3)oc12 [AZD8186]; details: max 10 µM
How it was run: as §1

Gemcitabine = compound: Nc1ccn([C@@H]2O[C@H](CO)[C@@H](O)C2(F)F)c(=O)n1 [Gemcitabine]; details: max 0.3 µM
How it was run: as §1

5-Fluorouracil = compound: O=c1[nH]cc(F)c(=O)[nH]1 [5-Fluorouracil]; details: max 20 µM
How it was run: as §1

MK-2206 = compound: NC1(c2ccc(-c3nc4ccn5c(=O)[nH]nc5c4cc3-c3ccccc3)cc2)CCC1 [MK-2206]; details: max 10 µM
How it was run: as §1

AZD7648 = compound: Cc1cc2ncnn2cc1Nc1ncc2c(n1)n(C1CCOCC1)c(=O)n2C [AZD7648]; details: max 10 µM
How it was run: as §1

AZD5991 = compound: Cc1c2c(nn1C)CSCc1cc(n(C)n1)CSc1cc(c3ccccc3c1)OCCCc1c(C(=O)O)n(C)c3c-2c(Cl)ccc13 [AZD5991]; details: max 1 µM
How it was run: as §1

AZD6738 = compound: C[C@@H]1COCCN1C2=NC(=NC(=C2)C3(CC3)[S@](=N)(=O)C)C4=C5C=CNC5=NC=C4 [AZD6738]; details: max 10 µM
How it was run: as §1

AZD4320 = compound: CN(CC[C@H](CSC1=CC=CC=C1)NC2=C(C=C(C=C2)S(=O)(=O)NC(=O)C3=CC=C(C=C3)N4CCC(CC4)[C@H](C5=CC=CC=C5C6=CC=C(C=C6)Cl)O)S(=O)(=O)C(F)(F)F)CCO [AZD4320]; details: max 1 µM
How it was run: as §1

AZD2811 = compound: CCN(CCO)CCCOc1ccc2c(Nc3cc(CC(=O)Nc4cccc(F)c4)[nH]n3)ncnc2c1 [AZD2811]; details: max 1 µM
How it was run: as §1

Savolitinib = compound: C[C@@H](c1ccc2nccn2c1)n1nnc2ncc(-c3cnn(C)c3)nc21 [Savolitinib]; details: max 1 µM
How it was run: as §1

Doxorubicin = compound: COc1cccc2c1C(=O)c1c(O)c3c(c(O)c1C2=O)C[C@@](O)(C(=O)CO)C[C@@H]3O[C@H]1C[C@H](N)[C@H](O)[C@H](C)O1 [Doxorubicin]; details: max 1 µM
How it was run: as §1

AZD5363 = compound: C1CN(CCC1(C(=O)N[C@@H](CCO)C2=CC=C(C=C2)Cl)N)C3=NC=NC4=C3C=CN4 [AZD5363]; details: max 10 µM
How it was run: as §1

Alisertib = compound: COc1cc(Nc2ncc3c(n2)-c2ccc(Cl)cc2C(c2c(F)cccc2OC)=NC3)ccc1C(=O)O [Alisertib]; details: max 10 µM
How it was run: as §1

SG3199 = compound: CC1=CN2[C@@H](C1)C=NC3=CC(=C(C=C3C2=O)OC)OCCCCCOC4=C(C=C5C(=C4)N=C[C@@H]6CC(=CN6C5=O)C)OC [SG3199]; details: max 0.001 µM
How it was run: as §1

Paclitaxel = compound: CC(=O)O[C@H]1C(=O)[C@@]2(C)[C@H]([C@H](OC(=O)c3ccccc3)[C@]3(O)C[C@H](OC(=O)[C@H](O)[C@@H](NC(=O)c4ccccc4)c4ccccc4)C(C)=C1C3(C)C)[C@]1(OC(C)=O)CO[C@@H]1C[C@@H]2O [Paclitaxel]; details: max 3 µM
How it was run: as §1

Lapatinib = compound: CS(=O)(=O)CCNCc1ccc(-c2ccc3ncnc(Nc4ccc(OCc5cccc(F)c5)c(Cl)c4)c3c2)o1 [Lapatinib]; details: max 10 µM
How it was run: as §1

Olaparib = compound: O=C(c1cc(Cc2n[nH]c(=O)c3ccccc23)ccc1F)N1CCN(C(=O)C2CC2)CC1 [Olaparib]; details: max 10 µM
How it was run: as §1

AZD1775 = compound: C=CCn1c(=O)c2cnc(Nc3ccc(N4CCN(C)CC4)cc3)nc2n1-c1cccc(C(C)(C)O)n1 [AZD1775]; details: max 3 µM
How it was run: as §1

SRA737 = compound: N#Cc1cnc(Nc2cc(NC[C@H]3CNCCO3)c(C(F)(F)F)cn2)cn1 [SRA737]; details: max 10 µM
How it was run: as §1

[1] = compound: O=C(Nc1ccc2[nH]nc(-c3ccncc3)c2c1)[C@@H]1CCN(CC(=O)N2CCN(c3ccc(-c4ncccn4)cc3)CC2)C1; details: max 5 µM
How it was run: as §1

Taselisib = compound: Cc1nc(-c2cn3c(n2)-c2ccc(-c4cnn(C(C)(C)C(N)=O)c4)cc2OCC3)n(C(C)C)n1 [Taselisib]; details: max 10 µM
How it was run: as §1

Selumetinib = compound: Cn1cnc2c(F)c(Nc3ccc(Br)cc3Cl)c(C(=O)NOCCO)cc21 [Selumetinib]; details: max 10 µM
How it was run: as §1

SN-38 = compound: CCc1c2c(nc3ccc(O)cc13)-c1cc3c(c(=O)n1C2)COC(=O)[C@]3(O)CC [SN-38]; details: max 0.3 µM
How it was run: as §1

Carboplatin = compound: C1CC(C1)(C(=O)[O-])C(=O)[O-].N.N.[Pt+2] [Carboplatin]; details: max 10 µM
How it was run: as §1

Dasatinib = compound: CC1=C(C(=CC=C1)Cl)NC(=O)C2=CN=C(S2)NC3=CC(=NC(=N3)C)N4CCN(CC4)CCO [Dasatinib]; details: max 2 µM
How it was run: as §1

Prexasertib = compound: COc1cccc(OCCCN)c1-c1cc(Nc2cnc(C#N)cn2)n[nH]1 [Prexasertib]; details: max 1 µM
How it was run: as §1

Crizotinib = compound: C[C@@H](Oc1cc(-c2cnn(C3CCNCC3)c2)cnc1N)c1c(Cl)ccc(F)c1Cl [Crizotinib]; details: max 10 µM
How it was run: as §1

Trametinib = compound: CC(=O)Nc1cccc(-n2c(=O)n(C3CC3)c(=O)c3c(Nc4ccc(I)cc4F)n(C)c(=O)c(C)c32)c1 [Trametinib]; details: max 1 µM
How it was run: as §1

Etoposide = compound: COc1cc([C@@H]2c3cc4c(cc3[C@@H](O[C@@H]3O[C@@H]5CO[C@@H](C)O[C@H]5[C@H](O)[C@H]3O)[C@H]3COC(=O)[C@H]23)OCO4)cc(OC)c1O [Etoposide]; details: max 10 µM
How it was run: as §1

Venetoclax = compound: CC1(C)CCC(CN2CCN(c3ccc(C(=O)NS(=O)(=O)c4ccc(NCC5CCOCC5)c([N+](=O)[O-])c4)c(Oc4cnc5[nH]ccc5c4)c3)CC2)=C(c2ccc(Cl)cc2)C1 [Venetoclax]; details: max 1 µM
How it was run: as §1

Gefitinib = compound: COc1cc2ncnc(Nc3ccc(F)c(Cl)c3)c2cc1OCCCN1CCOCC1 [Gefitinib]; details: max 10 µM
How it was run: as §1

Palbociclib = compound: CC(=O)c1c(C)c2cnc(Nc3ccc(N4CCNCC4)cn3)nc2n(C2CCCC2)c1=O [Palbociclib]; details: max 10 µM
How it was run: as §1

Row | Cell Line | IC50, cell viability 72 h (AZD0156) | IC50, cell viability 72 h (AZD1390) | IC50, cell viability 72 h (AZD5153) | IC50, cell viability 72 h (AZD8186) | IC50, cell viability 72 h (Gemcitabine) | IC50, cell viability 72 h (5-Fluorouracil) | IC50, cell viability 72 h (MK-2206) | IC50, cell viability 72 h (AZD7648) | IC50, cell viability 72 h (AZD5991) | IC50, cell viability 72 h (AZD6738) | IC50, cell viability 72 h (AZD4320) | IC50, cell viability 72 h (AZD2811) | IC50, cell viability 72 h (Savolitinib) | IC50, cell viability 72 h (Doxorubicin) | IC50, cell viability 72 h (AZD5363) | IC50, cell viability 72 h (Alisertib) | IC50, cell viability 72 h (SG3199) | IC50, cell viability 72 h (Paclitaxel) | IC50, cell viability 72 h (Lapatinib) | IC50, cell viability 72 h (Olaparib) | IC50, cell viability 72 h (AZD1775) | IC50, cell viability 72 h (SRA737) | IC50, cell viability 72 h [1] | IC50, cell viability 72 h (Taselisib) | IC50, cell viability 72 h (Selumetinib) | IC50, cell viability 72 h (SN-38) | IC50, cell viability 72 h (Carboplatin) | IC50, cell viability 72 h (Dasatinib) | IC50, cell viability 72 h (Prexasertib) | IC50, cell viability 72 h (Crizotinib) | IC50, cell viability 72 h (Trametinib) | IC50, cell viability 72 h (Etoposide) | IC50, cell viability 72 h (Venetoclax) | IC50, cell viability 72 h (Gefitinib) | IC50, cell viability 72 h (Palbociclib)
1 | KYSE-220 (Esophageal Squamous Cell Carcinoma) | > 3000 nM | > 300 nM | 358 nM | > 10000 nM | 33 nM | > 20000 nM | > 10000 nM | > 10000 nM | > 1000 nM | 1190 nM | > 1000 nM | > 1000 nM | > 1000 nM | 94.3 nM | > 10000 nM | 9200 nM | > 1 nM | 42.4 nM | 4250 nM | > 10000 nM | 355 nM | > 10000 nM | > 5000 nM | 1220 nM | 9200 nM | 17.5 nM | > 10000 nM | > 2000 nM | 16.3 nM | 5480 nM | 287 nM | 2520 nM | > 1000 nM | > 10000 nM | > 10000 nM
2 | MHH-ES-1 (Ewing's Sarcoma) | > 3000 nM | > 300 nM | 614 nM | > 10000 nM | 15.9 nM | > 20000 nM | > 10000 nM | > 10000 nM | > 1000 nM | > 10000 nM | > 1000 nM | 215 nM | > 1000 nM | 425 nM | > 10000 nM | 319 nM | > 1 nM | 5.4 nM | > 10000 nM | 4150 nM | 649 nM | > 10000 nM | > 5000 nM | 5810 nM | > 10000 nM | 3.05 nM | > 10000 nM | > 2000 nM | 212 nM | 3990 nM | > 1000 nM | 2700 nM | > 1000 nM | > 10000 nM | > 10000 nM
